In US20250332173A1, “COMPOUNDS AND METHODS FOR MODULATING NUCLEIC ACID SPLICING” (REMIX THERAPEUTICS INC., priority 2021, published 2025):
Read-outs that look alike come from different tables or passages of the source.

Columns and labels:
Format in all cases: cell-based, human
[1] = test system: MYB; experiment: HiBiT protein abundance assay, MYB HiBiT K562 cell line; conditions: 24 hours, top dose 10 μM
Procedure, shortened: (§1)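 Endogenous targets in K562 knock-in lines carried a HiBiT tag and were treated for 24 h at 37 °C with 10-point 3-fold dilutions (top 10 μM final, DMSO ≤0.25%). Abundance was read as lytic Nano-Glo HiBiT luminescence. IC50 came from a four-parameter logistic fit of normalized response.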

[2] = test system: HTT mRNA; experiment: RT-qPCR splicing assay, HTT canonical junction (CJ) and alternative junction (AJ) mRNA; conditions: Homo sapiens; for AC50: increase in HTT alternative junction (AJ) mRNA, read-out: HTT AJ AC50
Procedure, shortened: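 Following a 24-hour incubation of A673 or K562 cells with serially diluted compound (3-fold steps, highest final 10 uM), the lysates undergo cDNA synthesis plus qPCR. Canonical and alternative junctions are each quantified against PPIA, GAPDH or GUSB.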

[3] = test system: HTT; experiment: HiBiT protein abundance assay, HTT HiBiT K562 cell line; conditions: 24 hours, top dose 10 μM
Procedure, shortened: as §1

[4] = HiBiT K562 cell line, read-out: Effect on protein abundance, MYB (IC50 category)
[5] = decrease in HTT canonical junction (CJ) mRNA, RT-qPCR, read-out: HTT CJ IC50
[6] = Table 5 panel, canonical junction qPCR, compound concentration having 50% response in CJ decrease, read-out: HTT IC50 (decrease in CJ mRNA levels)
[7] = HiBiT K562 cell line, read-out: Effect on protein abundance, HTT (IC50 category)
[8] = canonical junction qPCR panel, Table 5, read-out: HTT (decrease in CJ mRNA levels, IC50)
[9] = HiBiT lytic detection, modified K562 cells, read-out: Effect on protein abundance, MYB (IC50)
[10] = HiBiT lytic detection, modified K562 cells, read-out: Effect on protein abundance, HTT (IC50)

Row | Compound | IC50 [1, 4] [µM] | IC50 [2, 5] [µM] | IC50 [2, 6] [µM] | IC50 [3, 7] [µM] | IC50 [2, 8] [µM] | IC50 [1, 9] [µM] | IC50 [3, 10] [µM] | AC50 ([2]; RT-qPCR) [µM]
1 | Cc1cc(-c2ccc3c(=O)n(C4CCNCC4)cnc3c2F)cc2cn(C)nc12 [Compound 234] | 1 to 10 | 1 to 10 | 1 to 10 | 1 to 10 | – | – | – | 1 to 10
2 | Cc1cc(-c2ccc3c(=O)n(C4CCN(C)CC4)cnc3c2F)cc2cn(C)nc12 [Compound 235] | 1 to 10 | > 10 | > 10 | > 10 | – | – | – | > 10
3 | Cc1cn2nc(-n3cnc4cc(N5CCNCC5)ccc4c3=O)cc(C)c2n1 [Compound 241] | 1 to 10 | 1 to 10 | 1 to 10 | 1 to 10 | – | – | – | 1 to 10
4 | Cc1c(O)c(-c2ncc3c(=O)n([C@H]4CC[C@@H](N(C)C)CC4)ccc3n2)cc2cn(C)nc12 [Compound 1460, 6-((1s,4s)-4-(dimethylamino)cyclohexyl)-2-(6-hydroxy-2,7-dimethyl-2H-indazol-5-yl)pyrido[4,3-d]pyrimidin-5(6H)-one] | 0.1 to 1 | 1 to 10 | – | 0.1 to 1 | 0.1 to 1 | – | – | 0.1 to 1
5 | Cc1c(O)c(-c2ccc3c(=O)n([C@@H]4C[C@@H](C)N[C@@H](C)C4)ccc3n2)cc2cn(C)nc12 [Compound 1463, 6-[(2S,6R)-2,6-dimethyl-4-piperidyl]-2-(6-hydroxy-2,7-dimethyl-indazol-5-yl)-1,6-naphthyridin-5-one] | 0.1 to 1 | 1 to 10 | – | 0.1 to 1 | 0.1 to 1 | – | – | 0.1 to 1
6 | Cc1c(O)c(-c2ccc3c(=O)n(C4CCNC4)cc(C)c3n2)cc2cn(C)nc12 (stereo not shown) [Compound 1467] | – | > 10 | – | – | 1 to 10 | 0.1 to 1 | 0.1 to 1 | 1 to 10
7 | Cc1cn2cc(-c3ncc4c(=O)n(C56CCC(N)(CC5)C6)ccc4n3)cc(F)c2n1 [Compound 1469, 6-(4-aminonorbornane-1-yl)-2-(8-fluoro-2-methyl-imidazo[1,2-a]pyridin-6-yl)pyrido[4,3-d]pyrimidin-5-one] | – | 1 to 10 | – | – | 1 to 10 | 0.1 to 1 | 1 to 10 | 1 to 10
8 | Cn1cc2cc(-c3ncc4c(=O)n(C56CCC(N)(CC5)C6)ccc4n3)c(O)cc2n1 [Compound 1470] | – | > 10 | – | – | 1 to 10 | 0.1 to 1 | 1 to 10 | 1 to 10
9 | Cc1c(O)c(-c2ncc3c(=O)n([C@@H]4C[C@H]5COC[C@@H](C4)N5)ccc3n2)cc2cn(C)nc12 [Compound 1471] | – | 0.1 to 1 | – | – | 0.1 to 1 | 0.1 to 1 | 0.1 to 1 | 0.1 to 1
10 | Cc1c(O)c(-c2ncc3c(=O)n([C@@H]4CC[C@@H](N)C4)ccc3n2)cc2cn(C)nc12 [Compound 1476, 6-[(1R,3R)-3-aminocyclopentyl]-2-(6-hydroxy-2,7-dimethyl-indazol-5-yl)pyrido[4,3-d]pyrimidin-5-one] | – | 1 to 10 | – | – | 0.1 to 1 | 0.1 to 1 | 0.1 to 1 | 0.1 to 1
11 | CNC12CCC(n3ccc4nc(-c5cc6cn(C)nc6c(C)c5O)ncc4c3=O)(CC1)C2 [Compound 1479] | – | 1 to 10 | – | – | 1 to 10 | < 0.1 | 0.1 to 1 | 1 to 10
12 | Cc1c(O)c(-c2nc(C)c3c(=O)n([C@@H]4CCNC5(CC5)C4)ccc3n2)cc2cn(C)nc12 [Compound 1515, (R)-2-(6-hydroxy-2,7-dimethyl-2H-indazol-5-yl)-4-methyl-6-(4-azaspiro[2.5]octan-7-yl)pyrido[4,3-d]pyrimidin-5(6H)-one] | – | 1 to 10 | – | – | 0.1 to 1 | < 0.1 | 0.1 to 1 | 0.1 to 1

More lines, main results first:

Row | IC50 [1, 4] [µM] | IC50 [2, 5] [µM] | IC50 [2, 6] [µM] | IC50 [3, 7] [µM] | IC50 [2, 8] [µM] | IC50 [1, 9] [µM] | IC50 [3, 10] [µM] | Compound | AC50 ([2]; RT-qPCR) [µM]
13 | 0.1 to 1 | 0.1 to 1 | 0.1 to 1 | 0.1 to 1 | – | – | – | Cc1cn2cc(-c3cc(F)c4c(=O)n(C5CCN(C)CC5)cnc4c3)cc(F)c2n1 [Compound 231, 5-fluoro-7-{8-fluoro-2-methylimidazo[1,2-a]pyridin-6-yl}-3-(1-methylpiperidin-4-yl)quinazolin-4-one] | 0.1 to 1
14 | < 0.1 | < 0.1 | < 0.1 | < 0.1 | – | – | – | Cc1cc(-c2cc(F)c3c(=O)n(C4CCNCC4)cnc3c2)cc2cn(C)nc12 [Compound 232] | < 0.1
15 | 0.1 to 1 | 0.1 to 1 | 0.1 to 1 | 0.1 to 1 | – | – | – | Cc1cc(-c2cc(F)c3c(=O)n(C4CCN(C)CC4)cnc3c2)cc2cn(C)nc12 [Compound 233] | 0.1 to 1
16 | 0.1 to 1 | 0.1 to 1 | 0.1 to 1 | 0.1 to 1 | – | – | – | Cc1cn2cc(-c3ccc4c(=O)n(C5CCNC6(CC6)C5)cnc4c3)cc(F)c2n1 (stereo not shown) [Compound 236] | 0.1 to 1
17 | 0.1 to 1 | 0.1 to 1 | 0.1 to 1 | 0.1 to 1 | – | – | – | Cc1cn2cc(-c3ccc4c(=O)n(C5CCNC(C)(C)C5)cnc4c3)cc(F)c2n1 (stereo not shown) [Compound 237] | 0.1 to 1
18 | < 0.1 | < 0.1 | < 0.1 | < 0.1 | – | – | – | Cc1cn2nc(-c3cc(F)c4c(=O)n(C5CCN(C)CC5)cnc4c3)cc(C)c2n1 [Compound 242] | < 0.1
19 | < 0.1 | 0.1 to 1 | – | 0.1 to 1 | 0.1 to 1 | – | – | Cc1cn2cc(-c3ncc4c(=O)n([C@H]5CCNC6(CC6)C5)ccc4n3)cc(F)c2n1 [Compound 1458, 6-[(7S)-4-azaspiro[2.5]octan-7-yl]-2-(8-fluoro-2-methyl-imidazo[1,2-a]pyridin-6-yl)pyrido[4,3-d]pyrimidin-5-one] | 0.1 to 1
20 | < 0.1 | 0.1 to 1 | – | 0.1 to 1 | 0.1 to 1 | – | – | Cc1c(O)c(-c2ncc3c(=O)n([C@H]4CC[C@H](N(C)C)CC4)ccc3n2)cc2cn(C)nc12 [Compound 1459, 6-((1r,4r)-4-(dimethylamino)cyclohexyl)-2-(6-hydroxy-2,7-dimethyl-2H-indazol-5-yl)pyrido[4,3-d]pyrimidin-5(6H)-one] | 0.1 to 1
21 | < 0.1 | 0.1 to 1 | – | 0.1 to 1 | 0.1 to 1 | – | – | Cc1c(O)c(-c2ncc3c(=O)n([C@H]4CCN[C@H](C)C4)ccc3n2)cc2cn(C)nc12 [Compound 1461, 2-(6-hydroxy-2,7-dimethyl-indazol-5-yl)-6-[(2R,4S)-2-methyl-4-piperidyl]pyrido[4,3-d]pyrimidin-5-one] | 0.1 to 1
22 | < 0.1 | 0.1 to 1 | – | < 0.1 | 0.1 to 1 | – | – | Cc1c(O)c(-c2ncc3c(=O)n([C@@H]4CCN[C@@H](C)C4)ccc3n2)cc2cn(C)nc12 [Compound 1462, 2-(6-hydroxy-2,7-dimethyl-indazol-5-yl)-6-[(2S,4R)-2-methyl-4-piperidyl]pyrido[4,3-d]pyrimidin-5-one] | 0.1 to 1
23 | < 0.1 | 0.1 to 1 | – | 0.1 to 1 | 0.1 to 1 | – | – | Cc1c(O)c(-c2ccc3c(=O)n([C@H]4C[C@@H](C)N[C@@H](C)C4)ccc3n2)cc2cn(C)nc12 [Compound 1464, 6-[(2S,6R)-2,6-dimethyl-4-piperidyl]-2-(6-hydroxy-2,7-dimethyl-indazol-5-yl)-1,6-naphthyridin-5-one] | 0.1 to 1
24 | 0.1 to 1 | 0.1 to 1 | – | 0.1 to 1 | 0.1 to 1 | – | – | Cn1cc2cc(-c3ncc4c(=O)n([C@H]5CCNC5)ccc4n3)c(O)c(F)c2n1 [Compound 1465] | 0.1 to 1
25 | – | 0.1 to 1 | – | – | 0.1 to 1 | 0.1 to 1 | 0.1 to 1 | Cn1cc2cc(-c3ncc4c(=O)n([C@@H]5CCNC5)ccc4n3)c(O)c(F)c2n1 [Compound 1466] | 0.1 to 1
26 | – | 0.1 to 1 | – | – | 0.1 to 1 | < 0.1 | 0.1 to 1 | Cn1cc2cc(-c3ncc4c(=O)n(C56CCC(N)(CC5)C6)ccc4n3)c(O)c(F)c2n1 [Compound 1468] | 0.1 to 1
27 | – | 0.1 to 1 | – | – | < 0.1 | 0.1 to 1 | < 0.1 | Cc1c(O)c(-c2ncc3c(=O)n([C@@H]4CC[C@H](N)C4)ccc3n2)cc2cn(C)nc12 [Compound 1477] | < 0.1
28 | – | 0.1 to 1 | – | – | 0.1 to 1 | < 0.1 | < 0.1 | Cc1c(O)c(-c2ncc3c(=O)n([C@H]4CCNC5(CC5)C4)ccc3n2)cc2cn(C)nc12 [Compound 1512] | 0.1 to 1
29 | – | 0.1 to 1 | – | – | < 0.1 | < 0.1 | < 0.1 | COc1cc(-c2ccc3c(=O)n([C@H]4CCN[C@@H](C)C4)ccc3n2)nn2cc(C)nc12 [Compound 1519, 2-(8-methoxy-2-methyl-imidazo[1,2-b]pyridazin-6-yl)-6-[(2S,4S)-2-methyl-4-piperidyl]-1,6-naphthyridin-5-one] | < 0.1
